The values below come from patent US4268664A, “Process for the preparation of 1-N-isoseryl- or 1-N-(L-4-amino-2-hydroxybutyryl)-3',4'-dideoxykanamycin B and intermediates thereof” (Zaidan Hojin Biseibutsu Kagaku Kenkyu Kai, priority 1978, dated 1981).

The subject of assay [1] is kanamycin-resistant microbial strains including Pseudomonas aeruginosa. The following applies: cited from earlier work.
The next assay deals with E. coli No. 29. As to the kind of experiment: Antibacterial activity (MIC), serial dilution method. It is filed as cell-based. As to conditions: Escherichia coli, nutrient agar, 37° C., 20 hours.
In the next assay the test system is E. coli W 677(A-20684). The description is as above. Format: cell-based. As to conditions: Escherichia coli; nutrient agar, 37° C., 20 hours. As for the experimental part:
(§1) Antimicrobial spectra of 1-N-(L-isoseryl)- and 1-N-(L-4-amino-2-hydroxybutyryl)-3',4'-dideoxy-3',4'-didehydrokanamycin B (1-AHP-eno-DKB and 1-AHB-eno-DKB) are shown in the following table together with that of 1-N-(L-4-amino-2-hydroxybutyryl)-3',4'-dideoxykanamycin B (1-AHB-DKB).
(§2) The minimum inhibitory concentrations (mcg/ml) of the compounds tested against various microorganisms were determined according to a serial dilution method using nutrient agar medium at 37° C., the estimation being effected after 20 hours-incubation.

In a further assay the test system is Sal. species D-0001. The description is as above. As to conditions: nutrient agar, 37° C., 20 hours. Format: cell-based. As for the experimental part:
as §1, §2

A further assay deals with Sal. species D-0029. The description is as above. It is filed as cell-based. As to conditions: nutrient agar, 37° C., 20 hours. As for the experimental part: as §1, §2
The next assay deals with Sal. species D-0006. The description is as above. Format: cell-based. As to conditions: nutrient agar, 37° C., 20 hours. As for the experimental part:
as §1, §2

The next assay relates to Pro. rettgelli J-0026. The assay is described as above. It is filed as cell-based. The following applies: 20 h.
In assay [2] the test system is drug-resistant microbial strains including Pseudomonas aeruginosa. The following applies: cited from earlier work.
Assay [3] concerns Sta. epidermidis ATCC 14990. As to the kind of experiment: Antibacterial activity (MIC), serial dilution method. Format: cell-based. The following applies: Staphylococcus epidermidis, ATCC14990; nutrient agar, 37° C., 20 hours.
The test system of assay [4] is Shigella dysenteriae Shigae. As to the kind of experiment: microbe, parasite or virus in culture. Format: cell-based. As to conditions: 20 h.
The next assay has as its system Serra. marcescens I-0043. As to the kind of experiment: Antibacterial activity (MIC), serial dilution method. Format: cell-based. As to conditions: Serratia marcescens, I0043, 20 h.
A further assay concerns Sta. aureus Smith S-424. Described as above. As to conditions: Staphylococcus aureus, SMITHS424; nutrient agar, 37° C., 20 hours. It is filed as cell-based.
The subject of assay [5] is Sal. enteritidis No. 11(T-okai). The description is as above. Format: cell-based. The following applies: Salmonella enterica, 20 h.
A further assay deals with E. coli A-0003. Described as above. Format: cell-based. As to conditions: Escherichia coli, A0003; nutrient agar, 37° C., 20 hours.
In a further assay the test system is Pro. mirabilis J-0010. The assay is described as above. It is filed as cell-based. As to conditions: Proteus mirabilis, J0010, 20 h.
Assay [6] has as its system Ps. aeruginosa IID 1210 (IFO 3455). The assay is described as above. Format: cell-based. The following applies: Pseudomonas aeruginosa, 20 h.
The subject of another assay is Ps. aeruginosa M-0002. The description is as above. As to conditions: Pseudomonas aeruginosa, M0002; nutrient agar, 37° C., 20 hours; read-out: MIC. Format: cell-based.
Another assay deals with Sal. typhimurium LT-2. Described as above. The following applies: Salmonella enterica, 20 h. It is filed as cell-based.
In another assay the test system is Ps. aeruginosa E-2. The assay is described as above. Format: cell-based. The following applies: Pseudomonas aeruginosa, E2, 20 h.
For the next assay, the system named is Sta. aureus ApO-1. The assay is described as above. It is filed as cell-based. As to conditions: Staphylococcus aureus, APO1; nutrient agar, 37° C., 20 hours.
The test system of a further assay is Serra. marcescens No. 2. The assay is described as above. The following applies: Serratia marcescens, nutrient agar, 37° C., 20 hours. It is filed as cell-based.
In the next assay the test system is Serra. marcescens No. 1. Described as above. It is filed as cell-based. The following applies: Serratia marcescens, nutrient agar, 37° C., 20 hours.
For another assay, the system named is Sta. epidermidis 109. Described as above. It is filed as cell-based. As to conditions: Staphylococcus epidermidis, nutrient agar, 37° C., 20 hours.
For assay [7], the system named is E. coli (M) Cast. & Chalm.NIHJ JC-2. The description is as above. As to conditions: Escherichia coli, NIHJJC2, 20 h. It is filed as cell-based.
The next assay has as its system Sta. aureus N-0089. The description is as above. Format: cell-based. As to conditions: Staphylococcus aureus, N0089; nutrient agar, 37° C., 20 hours.
The subject of assay [8] is Sta. aureus Rosenbach FDA 209-P JC-1. The description is as above. It is filed as cell-based. The following applies: Staphylococcus aureus, FDA209; nutrient agar, 37° C., 20 hours.
In another assay the test system is Ps. aeruginosa NC-5. The description is as above. It is filed as cell-based. As to conditions: Pseudomonas aeruginosa, NC5, 20 h.
Another assay has as its system Ps. aeruginosa IAM-1007. The description is as above. It is filed as cell-based. As to conditions: Pseudomonas aeruginosa, IAM1007, 20 h.
Another assay relates to Ps. aeruginosa M-0148. The assay is described as above. It is filed as cell-based. As to conditions: Pseudomonas aeruginosa, M0148, 20 h.
The subject of the next assay is Sal. typhi 0-901-W. The description is as above. Format: cell-based. The following applies: Salmonella enterica, 20 h.
The next assay concerns Str. faecalis ATCC 8043. Described as above. Format: cell-based. The following applies: Enterococcus faecalis, ATCC8043; nutrient agar, 37° C., 20 hours.
A further assay relates to Ps. aeruginosa M-0032. Described as above. It is filed as cell-based. The following applies: Pseudomonas aeruginosa, M0032, 20 h.
The test system of the next assay is B. anthracis No. 119. As to the kind of experiment: microbe, parasite or virus in culture. The following applies: Bacillus anthracis, NO.119, 20 h. Format: cell-based.
The test system of assay [9] is E. coli JR 66/W 677(A-20683). As to the kind of experiment: Antibacterial activity (MIC), serial dilution method. Format: cell-based. As to conditions: Escherichia coli, 20 h.
The test system of another assay is Pro. morganii K-ono. The description is as above. The following applies: Morganella morganii; nutrient agar, 37° C., 20 hours. Format: cell-based.
Another assay has as its system B. subtilis ATCC 6633. The description is as above. As to conditions: Bacillus subtilis, ATCC6633; nutrient agar, 37° C., 20 hours. Format: cell-based.
Assay [10] deals with Kleb. pneumoniae 22# 3038 (A-20680). The description is as above. As to conditions: Klebsiella pneumoniae; nutrient agar, 37° C., 20 hours; read-out: MIC. Format: cell-based.
Another assay concerns Kleb. pneumoniae. The description is as above. Format: cell-based. The following applies: Klebsiella pneumoniae; nutrient agar, 37° C., 20 hours; read-out: MIC.
In the next assay the test system is E. coli A-0001. Described as above. Format: cell-based. The following applies: Escherichia coli, A0001; nutrient agar, 37° C., 20 hours.
In a further assay the test system is Pro. vulgaris OX19. The assay is described as above. It is filed as cell-based. The following applies: Proteus vulgaris, nutrient agar, 37° C., 20 hours.
Another assay concerns Sta. aureus No. 26. Described as above. As to conditions: Staphylococcus aureus, nutrient agar, 37° C., 20 hours. Format: cell-based.
The test system of the next assay is Pro. vulgaris J-0001. The assay is described as above. As to conditions: Proteus vulgaris, J0001, 20 h. It is filed as cell-based.

Values after ≈ are worked out from the molar mass of the structure shown.

With `NCC1CCC(N)C(OC2C(N)CC(N)C(OC3OC(CO)C(O)C(N)C3O)C2O)O1` (stereo not drawn) [3',4'-Dideoxykanamycin B], the “activity against kanamycin-resistant microbial strains” value in [1] is on record as “high activity”.
In the case of `NCCC(O)C(=O)NC1CC(N)C(OC2OC(CN)CCC2N)C(O)C1OC1OC(CO)C(O)C(N)C1O` [1-AHB-DKB, 1-N-(L-4-amino-2-hydroxybutyryl)-3',4'-dideoxykanamycin B], the MIC against E. coli No. 29 is 3.13 µg/mL (≈ 5.66 µM); in the assay on E. coli W 677(A-20684), 0.2 µg/mL (≈ 0.362 µM); against Sal. species D-0001, 1.56 µg/mL (≈ 2.82 µM); against Sal. species D-0029 it was 3.13 µg/mL (≈ 5.66 µM); against Sal. species D-0006 it was 1.56 µg/mL (≈ 2.82 µM); against Pro. rettgelli J-0026 it was 6.25 µg/mL (≈ 11.3 µM). Besides, the MIC came out at 0.1 µg/mL (≈ 0.181 µM) in [3]; 0.78 µg/mL (≈ 1.41 µM) in [4]; 1.56 µg/mL (≈ 2.82 µM) in the assay on Serra. marcescens I-0043; 0.39 µg/mL (≈ 0.706 µM) in the assay on Sta. aureus Smith S-424; 1.56 µg/mL (≈ 2.82 µM) in [5]; 3.13 µg/mL (≈ 5.66 µM) against E. coli A-0003. Besides, the MIC in the assay with Pro. mirabilis J-0010 came out at 1.56 µg/mL (≈ 2.82 µM); in [6], 12.5 µg/mL (≈ 22.6 µM); with Ps. aeruginosa M-0002, 3.13 µg/mL (≈ 5.66 µM); in the assay with Sal. typhimurium LT-2, 1.56 µg/mL (≈ 2.82 µM); against Ps. aeruginosa E-2, 6.25 µg/mL (≈ 11.3 µM); against Sta. aureus ApO-1, 0.2 µg/mL (≈ 0.362 µM). In addition, the MIC against Serra. marcescens No. 2 is 3.13 µg/mL (≈ 5.66 µM); in the assay on Serra. marcescens No. 1 it was 3.13 µg/mL (≈ 5.66 µM); against Sta. epidermidis 109 it was 0.2 µg/mL (≈ 0.362 µM); in [7], 1.56 µg/mL (≈ 2.82 µM); against Sta. aureus N-0089, 0.39 µg/mL (≈ 0.706 µM); in assay [8], 0.05 µg/mL (≈ 0.0905 µM). Further, the MIC against Ps. aeruginosa NC-5 was 6.25 µg/mL (≈ 11.3 µM); against Ps. aeruginosa IAM-1007 it was 1.56 µg/mL (≈ 2.82 µM); against Ps. aeruginosa M-0148 it was 6.25 µg/mL (≈ 11.3 µM); against Sal. typhi 0-901-W, 0.39 µg/mL (≈ 0.706 µM); in the assay with Str. faecalis ATCC 8043, 50 µg/mL (≈ 90.5 µM); in the assay on Ps. aeruginosa M-0032, 12.5 µg/mL (≈ 22.6 µM). The MIC with B. anthracis No. 119 amounted to 0.1 µg/mL (≈ 0.181 µM); in assay [9], 1.56 µg/mL (≈ 2.82 µM); in the assay with Pro. morganii K-ono, 3.13 µg/mL (≈ 5.66 µM); against B. subtilis ATCC 6633, 0.1 µg/mL (≈ 0.181 µM); in [10], 0.78 µg/mL (≈ 1.41 µM); in the assay with Kleb. pneumoniae it was 0.78 µg/mL (≈ 1.41 µM). In addition, the MIC with E. coli A-0001 was determined as 3.13 µg/mL (≈ 5.66 µM); against Pro. vulgaris OX19, 3.13 µg/mL (≈ 5.66 µM); in the assay on Sta. aureus No. 26 it was 0.78 µg/mL (≈ 1.41 µM); with Pro. vulgaris J-0001 it was 1.56 µg/mL (≈ 2.82 µM). The “activity against a wide variety of drug-resistant microbial strains” value in assay [2] is “high activity”.
